Measured values reported in patent US20240190885A1, “KRAS PROTEIN DEGRADERS, PHARMACEUTICAL COMPOSITIONS THEREOF, AND THEIR THERAPEUTIC APPLICATIONS” (BioTheryX, Inc., priority 2021, published 2024).
pIC50: −log10 of the molar value.

Assays:
Type in all cases: cell-based
H358 (G12C) cells = test: Cell viability assay (CELLTITER-GLO), H358 cells; details: Homo sapiens, NCI-H358, 72 h, 3 days, CELLTITER-GLO luminescence, read-out: Inhibition of Cancerous Cells IC50 H358 (G12C)
Procedure: (§1) H358 and SW48 cells were cultured in RPMI 1640 media supplemented with 10% fetal bovine serum, streptomycin, and penicillin. Lovo and SW480 cells were cultured in DMEM media supplemented with 10% fetal bovine serum, streptomycin, and penicillin. The cell lines were plated in their respective medium supplemented with 2.5% fetal bovine serum, streptomycin, and penicillin. All cell lines were plated in white walled 96-well plates at 2,000 cells/well or 384-well plates at 500 cells/well, except Lovo, which were plated at 4,000 or 1,000 cells/well, respectively. The cells were incubated in DMSO (control) or a compound for 3 days at 37° C. under 5% CO2. A CELLTITER-GLO® reagent (100 μL) was then added to each well. After a 10 min incubation with shaking, luminescence was measured using an ENVISION® multimode plate reader.

KRAS = molecular target: T1, KRAS (Homo sapiens, UniProt P01116); test: Protein degradation assay (western blot) in HEK293 cells; details: 6 h; for percent KRAS protein degradation at 3 µM: compound 3 μM; for KRAS Protein Degradation (%) 5 μM: compound 5 μM
T1 construct: Whole cell extracts were prepared using an immunoprecipitation (IP) lysis buffer; endogenous in cells; host or cells: HEK293
Procedure: HEK293 cells were grown in RPMI 1640 media supplemented with 10% fetal bovine serum, streptomycin, and penicillin. The cells were plated in 24-well plates in the growth media. The cells were then treated with a compound at indicated concentrations for 6 h. Whole cell extracts were prepared using an immunoprecipitation (IP) lysis buffer. Briefly, the cells were washed once in PBS, and the cell pellets were resuspended in the IP lysis buffer and incubated for 15 min on ice. Cell debris was removed by centrifugation and the cleared whole cell lysates were transferred to new tubes for further analysis.
For a western blot analysis, the whole cell protein extracts were separated on 4-12% SDS-polyacrylamide gels, transferred to nitrocellulose, and probed with primary antibodies. The nitrocellulose is subsequently washed and probed with IRDYE® secondary antibodies. The signals were detected using an ODYSSEY® Imaging System. The antibodies used in the assay included anti-KRAS; […] mouse monoclonal antibody; IRDYE® 680RD goat anti-rabbit antibody; and IRDYE® 800CW goat anti-mouse antibody.

Lovo (G13D) cells = test: Cell viability assay (CELLTITER-GLO), Lovo cells; details: Homo sapiens, 72 h, 3 days, CELLTITER-GLO luminescence, read-out: Inhibition of Cancerous Cells IC50 Lovo (G13D)
Procedure: as §1

SW48 (wt) cells = test: Cell viability assay (CELLTITER-GLO), SW48 cells; details: Homo sapiens, 72 h, 3 days, CELLTITER-GLO luminescence, read-out: Inhibition of Cancerous Cells IC50 SW48 (wt)
Procedure: as §1

SW480 (G12V) cells = test: Cell viability assay (CELLTITER-GLO), SW480 cells; details: Homo sapiens, 72 h, 3 days, CELLTITER-GLO luminescence, read-out: Inhibition of Cancerous Cells IC50 SW480 (G12V)
Procedure: as §1

T1 sequence (P01116 1-188 isoform P01116-2): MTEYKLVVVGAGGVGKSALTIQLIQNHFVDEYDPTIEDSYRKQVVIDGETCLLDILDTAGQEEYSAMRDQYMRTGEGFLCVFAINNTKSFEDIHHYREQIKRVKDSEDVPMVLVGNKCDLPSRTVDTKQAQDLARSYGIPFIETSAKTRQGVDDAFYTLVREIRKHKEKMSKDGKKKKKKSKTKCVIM

Row | SMILES | pIC50 (H358 (G12C) cells) | percent KRAS protein degradation at 3 µM (KRAS) | KRAS Protein Degradation (%) 5 μM (KRAS) | pIC50 (Lovo (G13D) cells) | pIC50 (SW48 (wt) cells) | pIC50 (SW480 (G12V) cells)
1 | Cc1nn2c(N3CCN(CCO)CC3)cc(-c3cccc(C#CCCCCCCCOC(=O)CC45CC6CC(CC(C6)C4)C5)c3)nc2c1-c1ccccc1 [Compound A5, 9-(3-(7-(4-(2-hydroxyethyl)piperazin-1-yl)-2-methyl-3-phenylpyrazolo[1,5-a]pyrimidin-5-yl)phenyl)non-8-yn-1-yl 2-(adamantan-1-yl)acetate] | < 5.00 | 4% | 18% | < 5.00 | < 5.00 | < 5.00
2 | Cc1nn2c(N3CCN(CCO)CC3)cc(-c3cccc(CCCCCCCCCOC(=O)CC45CC6CC(CC(C6)C4)C5)c3)nc2c1-c1ccccc1 [Compound A6, 9-(3-(7-(4-(2-hydroxyethyl)piperazin-1-yl)-2-methyl-3-phenylpyrazolo[1,5-a]pyrimidin-5-yl)phenyl)nonyl 2-(adamantan-1-yl)acetate] | < 5.00 | 10% | 28% | < 5.00 | < 5.00 | < 5.00
3 | Cc1nn2c(N3CCN(CCO)CC3)cc(-c3ccccc3)nc2c1-c1cccc(CCCCCCCCCNC(=O)CC23CC4CC(CC(C4)C2)C3)c1 [Compound C2, 2-(Adamantan-1-yl)-N-(9-(3-(7-(4-(2-hydroxyethyl)piperazin-1-yl)-2-methyl-5-phenylpyrazolo[1,5-a]pyrimidin-3-yl)phenyl)nonyl)acetamide] | < 5.00 | 0% | 0% | 5.47 | 5.35 | 5.66
4 | Cc1nn2c(N3CCN(CCO)CC3)cc(-c3ccccc3)nc2c1-c1ccccc1 [drawing 106, reference compound] | – | 0% | – | – | – | –

Now from value to compound:

Row | pIC50 (H358 (G12C) cells) | percent KRAS protein degradation at 3 µM (KRAS) | KRAS Protein Degradation (%) 5 μM (KRAS) | pIC50 (Lovo (G13D) cells) | pIC50 (SW48 (wt) cells) | pIC50 (SW480 (G12V) cells) | SMILES
5 | 5.11 | 7% | 27% | 5.35 | 5.30 | < 5.00 | Cc1nn2c(N3CCN(CCO)CC3)cc(-c3cccc(CCCCCCCCCNC(=O)CC45CC6CC(CC(C6)C4)C5)c3)nc2c1-c1ccccc1 [Compound A1, 2-(adamantan-1-yl)-N-(9-(3-(7-(4-(2-hydroxyethyl)piperazin-1-yl)-2-methyl-3-phenylpyrazolo[1,5-a]pyrimidin-5-yl)phenyl)nonyl)acetamide]
6 | 5.77 | 20% | 54% | 5.92 | 5.85 | 6.08 | Cc1nn2c(N3CCN(CCO)CC3)cc(-c3cccc(CCNC(=O)CC45CC6CC(CC(C6)C4)C5)c3)nc2c1-c1ccccc1 [Compound A2, 2-(adamantan-1-yl)-N-(3-(7-(4-(2-hydroxyethyl)piperazin-1-yl)-2-methyl-3-phenylpyrazolo[1,5-a]pyrimidin-5-yl)phenethyl)acetamide]
7 | 5.48 | 0% | 0% | 6.01 | 5.85 | 5.92 | Cc1nn2c(N3CCN(CCO)CC3)cc(-c3cccc(CCOCCOC(=O)CC45CC6CC(CC(C6)C4)C5)c3)nc2c1-c1ccccc1 [Compound A3, 2-(3-(7-(4-(2-hydroxyethyl)piperazin-1-yl)-2-methyl-3-phenylpyrazolo[1,5-a]pyrimidin-5-yl)phenethoxy)ethyl 2-(adamantan-1-yl)acetate]
8 | 5.80 | 20% | 51% | 6.06 | 5.89 | 5.92 | Cc1nn2c(N3CCN(CCO)CC3)cc(-c3cccc(CCOCCNC(=O)CC45CC6CC(CC(C6)C4)C5)c3)nc2c1-c1ccccc1 [Compound A4, 2-(adamantan-1-yl)-N-(2-(3-(7-(4-(2-hydroxyethyl)piperazin-1-yl)-2-methyl-3-phenylpyrazolo[1,5-a]pyrimidin-5-yl)phenethoxy)ethyl)acetamide]
9 | 5.48 | – | – | 5.59 | 5.57 | 5.85 | Cc1nn2c(N3CCN(CCO)CC3)cc(-c3ccccc3)nc2c1-c1ccccc1 [drawing 105, reference compound]
